# In patent publication US8962692B2, “Cysteine and cystine prodrugs to treat schizophrenia and reduce drug cravings” (Marquette University, priority 2008, dated 2015):
# Experiments:
# [1] = test system: cocaine-induced reinstatement; assay: Extinction/reinstatement paradigm: cocaine-induced reinstatement of lever pressing; type: in vivo; settings: rats, cocaine 10 mg/kg IP
# [2] = test system: PCP-induced deficits in sensorimotor gating; assay: Prepulse inhibition of startle response; reversal of PCP-induced deficits in sensorimotor gating; settings: for inhibition of startle response (prepulse inhibition): difference relative to rats receiving PCP alone and/or N-acetylcysteine 30 mg/kg: compound pretreatment 60 min, prepulse 2-15 dB above background, Fisher LSD p<0.05
# compulsive drug-seeking = settings: rodents, preclinical studies; cited from earlier work
# cocaine use and craving = settings: cocaine abusers receiving NAC, clinical data; cited from earlier work
# [3] = human subjects; cited from earlier work
# [4] = rats, phencyclidine 1.25 mg/kg SC
Compound,"inhibition of startle response (prepulse inhibition): difference relative to rats receiving PCP alone and/or N-acetylcysteine 30 mg/kg [2, 4]",melting point,also measured
"CCOC1=N[C@@H](CSSC[C@H]2N=C(OCC)CN=C2OCC)C(OCC)=NC1 [Compound 5a-D, Bis[(3,6-Diethoxy-2,5-dihy-dro-pyrazin-2-yl)-methanethiol]]",significant difference,,"cocaine-induced reinstatement ([1]; 1 mg/kg (p.o.), comparable to 30 mg/kg NAC): sufficient to block cocaine-induced reinstatement"
CC(C)C1NC(=O)[C@@H](CSSC[C@@H]2NC(=O)CNC2=O)NC1=O (stereo partly shown) [Compound 11-a-d],significant difference,,
"CCOC1=N[C@@H](CS)C(OCC)=NC1 [Compound 5a, (3,6-Diethoxy-2,5-dihydro-,pyrazin-2-yl)-methanethiol]",significant difference,,
CC(=O)N[C@@H](CS)C(=O)O [N-acetyl cysteine],,,"compulsive drug-seeking (compulsive drug-seeking): effective in blocking compulsive drug-seeking; cocaine use and craving (cocaine use and craving): reduction in cocaine use and craving; cocaine-induced reinstatement ([1]; 30 mg/kg IP, responding 120 min): significant reduction; cocaine-induced reinstatement ([1]; 60 mg/kg IP, responding 120 min): significant reduction; cocaine-induced reinstatement ([1]; given orally): less effective; phencyclidine-induced deficits in sensorimotor gating ([2]; direct delivery into the brain (prefrontal cortex)): reverses phencyclidine-induced deficits in sensorimotor gating; sensorimotor gating (prepulse inhibition) after PCP ([2]; rats, N-acetyl cysteine 30 mg/kg po, pretreated 60 min, phencyclidine 1.25 mg/kg SC): failed to exhibit sensorimotor gating; safety/tolerability profile [3]: favorable safety/tolerability profile"
"CC(C)[C@H]1NC(=O)[C@H](CS)NC1=O [Compound 4d, (6R)-3-isopropyl-6-(mercaptomethyl)piperazine-2,5-dione]",,> 275 °C,
"O=C1N[C@@H](CSSc2ccccc2)C(=O)N2CCC[C@H]12 [Compound 3b-c, (3R,8aR)-3-((phenyldisulfanyl)methyl)hexahydropyrrolo[1,2-a]pyrazine-1,4-dione]",,120 °C,
O=C1CNC(=O)[C@H](CSSC[C@H]2NC(=O)[C@H](Cc3ccccc3)NC2=O)N1 [Compound 11-a-b],significant difference,,
"c1ccc(C2(N3CCCCC3)CCCCC2)cc1 [PCP, phencyclidine, reference compound]",,,"effect of PCP on prepulse inhibition ([2]; rats, pcp 0-2.0 mg/kg, FIG. 4): disrupt prepulse inhibition"
"O=C1CNC(=O)[C@H](CS)N1 [Compound 4a, 2,5-piperazinedione, 3-(mercaptomethyl)-]",significant difference,258 °C,
"CCOC1=N[C@@H](CSCC)C(=O)N[C@@H]1Cc1ccccc1 [Compound 6b-b, (3R,6R)-6-Benzyl-5-ethoxy-3-(ethylthiomethyl)-1,6-dihydropyrazin-2(3H)-one]",,118 °C,
"O=C1CNC(=O)[C@H](CSSC[C@@H]2NC(=O)CNC2=O)N1 [Compound 7a, Bis[2,5-Piperazinedione, 3-(mercaptomethyl)-]]",significant difference,,
"O=C1CNC(=O)[C@@H](CSC(c2ccccc2)(c2ccccc2)c2ccccc2)N1 (stereo in doubt) [Compound 3c-a, 3-Tritylsulfanylmethyl-piperazine-2,5-dione]",,225 to 227 °C,
"CC(C)(C)SC[C@H]1NC(=O)[C@H](CS)NC1=O [Compound 4e, (6R)-3-(tert-butylthiomethyl)-6-(mercaptomethyl)piperazine-2,5-dione]",,> 280 °C (dec.),
